Source: PubChem BioAssay AID330 (DTP/NCI, 2004)
Values joined by “and” are separate entries in the source; they are usually repeats but may differ in a detail not shown here. Equal entries are not always repeated. Toxic doses and inconclusive results are not listed. Rule for the calls: active = survival T/C of 150% or more; inactive = T/C below 125% in these data. Square brackets hold non-standard residues; d marks the D form. Peptide text beside a SMILES is read from it. * marks the point of attachment. ξ: configuration not given here. Cbz = O=C(OCc1ccccc1)*; ξM = CSCCC(N)C(=O)O

System: P388 leukemia ip, CD2F1 mice, survival T/C
Assay: NCI In Vivo Anticancer Drug Screen. Data for tumor model P388 Leukemia (intraperitoneal) in CD2F1 (CDF1) mice
Conditions: endpoint: median survival time, higher = longer survival
Outline: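 Mice carrying the transplanted tumor received test compound or vehicle. Survival was recorded in each group, and the value is the treated-group measurement divided by that of the vehicle-treated control group.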

[1] = dose: 50.0 mg/kg/injection, schedule: Q01DX005 (ip), vehicle: Klucel (hydroxypropylcellulose) (HPC)
[2] = dose: 100.0 mg/kg/injection, schedule: Q01DX005 (ip), vehicle: Klucel (hydroxypropylcellulose) (HPC)
[3] = dose: 200.0 mg/kg/injection, schedule: Q01DX005 (ip), vehicle: Klucel (hydroxypropylcellulose) (HPC)
[4] = dose: 25.0 mg/kg/injection, schedule: Q01DX009 (ip), vehicle: Klucel (hydroxypropylcellulose) (HPC)
[5] = dose: 50.0 mg/kg/injection, schedule: Q01DX009 (ip), vehicle: Klucel (hydroxypropylcellulose) (HPC)
[6] = dose: 50.0 mg/kg/injection, schedule: Q01DX005 (ip), vehicle: saline with Tween-80
[7] = dose: 100.0 mg/kg/injection, schedule: Q01DX005 (ip), vehicle: saline with Tween-80
[8] = dose: 200.0 mg/kg/injection, schedule: Q01DX005 (ip), vehicle: saline with Tween-80
[9] = dose: 60.0 mg/kg/injection, schedule: Q01DX005 (ip), vehicle: Klucel (hydroxypropylcellulose) (HPC)
[10] = dose: 120.0 mg/kg/injection, schedule: Q01DX005 (ip), vehicle: Klucel (hydroxypropylcellulose) (HPC)
[11] = dose: 240.0 mg/kg/injection, schedule: Q01DX005 (ip), vehicle: Klucel (hydroxypropylcellulose) (HPC)
[12] = dose: 60.0 mg/kg/injection, schedule: Q01DX005 (ip), vehicle: saline with Tween-80
[13] = dose: 120.0 mg/kg/injection, schedule: Q01DX005 (ip), vehicle: saline with Tween-80
[14] = dose: 240.0 mg/kg/injection, schedule: Q01DX005 (ip), vehicle: saline with Tween-80
[15] = dose: 25.0 mg/kg/injection, schedule: Q01DX005 (ip), vehicle: saline
[16] = dose: 50.0 mg/kg/injection, schedule: Q01DX005 (ip), vehicle: saline
[17] = dose: 100.0 mg/kg/injection, schedule: Q01DX005 (ip), vehicle: saline

Measured: T/C

CSCCC(NC(=O)CNC(=O)CNC(=O)OCc1ccccc1)C(=O)O (stereo not drawn) (Cbz-Gly-Gly-[ξM]-OH)
inactive: [1] 95 % of control | [2] 98 % of control | [3] 98 % of control

O=C1c2ccccc2CCC12OC2c1ccncc1 (stereo not drawn)
inactive: [4] 107 % of control | [5] 110 % of control | dose: 100.0 mg/kg/injection, schedule: Q01DX009 (ip), vehicle: Klucel (hydroxypropylcellulose) (HPC) 100 % of control

CCOC(=O)NC(=S)Nc1cn(C)cc1[N+](=O)[O-]
inactive: [6] 100 % of control | [7] 100 % of control | [8] 95 % of control

O=C1NC(c2cccc3ccccc23)Nc2ccc(Cl)cc21 (stereo not drawn)
inactive: dose: 12.5 mg/kg/injection, schedule: Q01DX009 (ip), vehicle: Klucel (hydroxypropylcellulose) (HPC) 113 % of control | [4] 123 % of control | [5] 123 % of control

CC1=CC(=C2C(=O)c3ccccc3C2=O)C=C(C)O1
inactive: [1] 101 % of control | [9] 95 % of control | [2] 89 % of control | [10] 90 % of control | [3] 88 % of control | [11] 87 % of control

CS(=O)CCN=Cc1ccc(N=Nc2ccc(O)cc2)cc1 (stereo not drawn)
inactive: [12] 103 % of control | [13] 103 % of control | [14] 97 % of control

O=C1NC2(CCCCC2)C(=O)N1CCl
inactive: dose: 6.25 mg/kg/injection, schedule: Q01DX005 (ip), vehicle: saline 100 % of control | dose: 12.5 mg/kg/injection, schedule: Q01DX005 (ip), vehicle: saline 101 % of control | [15] 108 % of control | dose: 30.0 mg/kg/injection, schedule: Q01DX005 (ip), vehicle: saline 104 % of control | [16] 103 % of control | dose: 60.0 mg/kg/injection, schedule: Q01DX005 (ip), vehicle: saline 122 % of control | [17] 112 % of control | dose: 120.0 mg/kg/injection, schedule: Q01DX005 (ip), vehicle: saline 118 % of control | dose: 240.0 mg/kg/injection, schedule: Q01DX005 (ip), vehicle: saline 114 % of control

CCCCCCCCCCCCCC(=O)Oc1ccc[nH]c1=O
inactive: [6] 91 % of control | [7] 90 % of control | [8] 90 % of control | dose: 400.0 mg/kg/injection, schedule: Q01DX005 (ip), vehicle: saline with Tween-80 98 % of control

CNc1ccccc1Sc1cnc(N)nc1C
inactive: [9] 94 % of control | [10] 91 % of control | [11] 90 % of control

CC1CC(=O)Nc2nc(N)ncc21 (stereo not drawn)
inactive: [12] 102 % of control | [13] 106 % of control | [14] 108 % of control

Cc1ccc2nc(CC(=O)c3ccc4ccccc4c3)c(=O)[nH]c2c1
inactive: [12] 99 % of control | [13] 92 % of control | [14] 94 % of control

NC(CCC(=O)NC(CS)C(=O)NCC(=O)O)C(=O)O (stereo not drawn)
inactive: [15] 102 % of control | [16] 104 % of control and 108 % of control | [17] 98 % of control and 94 % of control | dose: 200.0 mg/kg/injection, schedule: Q01DX005 (ip), vehicle: saline 102 % of control | dose: 400.0 mg/kg/injection, schedule: Q01DX005 (ip), vehicle: saline 93 % of control
